These are literature values, as cited in US20160128986A1, “METHODS AND COMPOSITIONS RELATED TO THE USE OF LOW HLB SURFACTANTS IN THE PRODUCTION OF SYNTHETIC NANOCARRIERS COMPRISING A RAPALOG” (Selecta Biosciences, Inc., priority 2014, published 2016).

For the data set the following is noted: publicly available information.
`CCCCCCCCCCCCCCCC(=O)O` [Palmitic Acid]: the “HLB of Surfactant” value is on record as 3.2.

“Polyethylene glycol oleyl ether [Brij 93]”: the “HLB of Surfactant” value was 4.

Polysorbate 80: the “HLB of Surfactant” value was 15.

Take Sorbitan monooleate [SPAN 80]: the “HLB of Surfactant” value is 4.3.

Take `CCCCCCCCO[C@@H]1O[C@H](CO)[C@@H](O)[C@H](O)[C@H]1O` [octyl β-D-glucopyranoside, Octyl β-D-glucopyranoside]: the “HLB of Surfactant” value is listed as 12.

With “Polyethylene glycol hexadecyl ether [Brij 52]”, the “HLB of Surfactant” value is recorded as 5.

For the molecule Sorbitan monolaurate [SPAN 20], the “HLB of Surfactant” value was 8.6.

Sorbitan stearate [SPAN 60]: the “HLB of Surfactant” value is 4.7.

Sorbitan monopalmitate [SPAN 40]: the “HLB of Surfactant” value was 6.7.
